Experimental data taken from US6355799B1, “Substituted benzene compounds, process for their preparation, and herbicidal and defoliant compositions containing them” (ISK Americas Incorporated, priority 1997, dated 2002).

Key:
Type in all cases: in vivo
[1] = tested on: upland rice (Oryza sp., var. Tebonnet, RICE); assay: Post-emerge test, crop safety; settings: post-emerge, 14 days after application, rating scale 0-100
In short: (§1)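 Compounds in acetone were track-sprayed at 15-1000 g ai/ha (187 l/ha) on sandy loam pots: pre-emerge one day after seeding, post-emerge at 2-3 leaf stage with 0.25% v/v non-ionic surfactant. Phytotoxicity was rated 14 days later on a 0 (no damage) to 100 (complete death) scale.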

[2] = tested on: field corn (Zea mays L., var. Dekalb 535, CORN); assay: Post-emerge test, crop safety; settings: post-emerge, 14 days after application, rating scale 0-100
In short: as §1

[3] = tested on: johnsongrass (Sorghum halepense, SORHA); assay: Post-emerge test, greenhouse herbicide activity screening; settings: post-emerge, 14 days after application, rating scale 0-100
In short: (§2)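 Compounds in acetone were track-sprayed at 15–1000 g ai/ha: pre-emergence onto soil sown the previous day, then top-watered to incorporate and later bottom-watered; post-emergence onto 2–3 leaf plants with 0.25% v/v surfactant, bottom-watered only. Ratings on a 0–100 phytotoxicity scale were taken at day 14.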

[4] = tested on: redroot pigweed (Amaranthus retroflexus, AMARE); assay: as above; settings: post-emerge, 14 days after application
In short: as §2

[5] = tested on: sicklepod (Cassia obtusifolia, CASOB); assay: as above; settings: post-emerge, 14 days after application, rating scale 0-100
In short: as §2

[6] = tested on: large crabgrass (Digitaria sanguinalis, DIGSA); assay: as above; settings: post-emerge, 14 days after application, rating scale 0-100
In short: as §2

[7] = tested on: ivyleaf morningglory (Ipomoea hederacea, IPOHE); assay: as above; settings: post-emerge, 14 days after application, rating scale 0-100
In short: as §2

[8] = tested on: green foxtail (Setaria viridis, SETVI); assay: as above; settings: post-emerge, 14 days after application, rating scale 0-100
In short: as §2

[9] = tested on: velvetleaf (Abutilon theophrasti, ABUTH); assay: as above; settings: post-emerge, 14 days after application, rating scale 0-100
In short: as §2

[10] = tested on: lambsquarters (Chenopodium album, CHEAL); assay: as above; settings: post-emerge, 14 days after application, rating scale 0-100
In short: as §2

[11] = tested on: barnyardgrass (Echinochloa crus-galli, ECHCG); assay: as above; settings: post-emerge, 14 days after application, rating scale 0-100
In short: as §2

[12] = tested on: redroot pigweed (Amaranthus retroflexus, AMARE); assay: Pre-emerge test, greenhouse herbicide activity screening; settings: phytotoxicity rating 0-100, 14 days after application
In short: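 Rating: 0–100 visual injury, 14 DAA. Application: acetone, 187 l/ha, 15–1000 g ai/ha, flat-fan track sprayer with nozzle 40–45 cm above soil or canopy. Post-emerge runs used 0.25% v/v surfactant on 2–3 leaf plants.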

[13] = tested on: johnsongrass (Sorghum halepense, SORHA); assay: as above; settings: phytotoxicity rating 0-100, 14 days after application
In short: as §1

[14] = tested on: sicklepod (Cassia obtusifolia, CASOB); assay: as above; settings: phytotoxicity rating 0-100, 14 days after application
In short: as §1

[15] = tested on: large crabgrass (Digitaria sanguinalis, DIGSA); assay: as above; settings: phytotoxicity rating 0-100, 14 days after application
In short: as §1

[16] = tested on: ivyleaf morningglory (Ipomoea hederacea, IPOHE); assay: as above; settings: phytotoxicity rating 0-100, 14 days after application
In short: as §1

[17] = tested on: green foxtail (Setaria viridis, SETVI); assay: as above; settings: phytotoxicity rating 0-100, 14 days after application
In short: as §1

[18] = tested on: velvetleaf (Abutilon theophrasti, ABUTH); assay: as above; settings: phytotoxicity rating 0-100, 14 days after application
In short: as §1

[19] = tested on: lambsquarters (Chenopodium album, CHEAL); assay: as above; settings: phytotoxicity rating 0-100, 14 days after application
In short: as §1

[20] = tested on: barnyardgrass (Echinochloa crus-galli, ECHCG); assay: as above; settings: phytotoxicity rating 0-100, 14 days after application
In short: as §1

[21] = tested on: upland rice (Oryza sp., var. Tebonnet, RICE); assay: Pre-emerge test, crop safety; settings: crop damage rating 0-100, 14 days after application
In short: (§3)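 Compounds in acetone were track-sprayed at 187 l/ha, 15–1000 g ai/ha, onto sandy loam pots. Pre-emerge seeds were sown one day before spraying, with surface watering afterwards. Post-emerge plants were at the 2–3 leaf stage and sprayed with 0.25% v/v non-ionic surfactant. Injury was rated 0–100 at 14 days.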

[22] = tested on: field corn (Zea mays L., var. Dekalb 535, CORN); assay: Pre-emerge test, crop safety; settings: crop damage rating 0-100, 14 days after application
In short: as §3

[23] = 63 g ai/ha, rating scale 0-100 (0 no damage, 100 complete death)
[24] = 250 g ai/ha, rating scale 0-100

## CCc1ccc(COC(=O)Nc2c(OC)c(Cl)cc(F)c2-n2c(=O)cc(C(F)(F)F)n(C)c2=O)cc1 [4-31]
[1]; 63 g ai/ha
  phytotoxicity rating RICE (crop damage): 20
[1]; 250 g ai/ha
  phytotoxicity rating RICE (crop damage): 40
[2]; 63 g ai/ha
  phytotoxicity rating CORN (crop damage): 10
[2]; 250 g ai/ha
  phytotoxicity rating CORN (crop damage): 25
[3]; 63 g ai/ha
  phytotoxicity rating SORHA: 0
[3]; 250 g ai/ha
  phytotoxicity rating SORHA: 10
[4]; [23]
  phytotoxicity rating AMARE: 100
[4]; [24]
  phytotoxicity rating AMARE: 100
[5]; 63 g ai/ha
  phytotoxicity rating CASOB: 10
[5]; 250 g ai/ha
  phytotoxicity rating CASOB: 30
[6]; 63 g ai/ha
  phytotoxicity rating DIGSA: 0
[6]; 250 g ai/ha
  phytotoxicity rating DIGSA: 10
[7]; 63 g ai/ha
  phytotoxicity rating IPOHE: 100
[7]; 250 g ai/ha
  phytotoxicity rating IPOHE: 100
[8]; 63 g ai/ha
  phytotoxicity rating SETVI: 20
[8]; 250 g ai/ha
  phytotoxicity rating SETVI: 40
[9]; 63 g ai/ha
  phytotoxicity rating ABUTH: 100
[9]; 250 g ai/ha
  phytotoxicity rating ABUTH: 100
[10]; 63 g ai/ha
  phytotoxicity rating CHEAL: 100
[10]; 250 g ai/ha
  phytotoxicity rating CHEAL: 100
[11]; 63 g ai/ha
  phytotoxicity rating ECHCG: 10
[11]; 250 g ai/ha
  phytotoxicity rating ECHCG: 10
[12]; 63 g ai/ha
  Pre-emerge Herbicidal Activity AMARE: 100
[12]; 250 g ai/ha
  Pre-emerge Herbicidal Activity AMARE: 100
[13]; 63 g ai/ha
  Pre-emerge Herbicidal Activity SORHA: 10
[13]; 250 g ai/ha
  Pre-emerge Herbicidal Activity SORHA: 20
[14]; 63 g ai/ha
  Pre-emerge Herbicidal Activity CASOB: 0
[14]; 250 g ai/ha
  Pre-emerge Herbicidal Activity CASOB: 10
[15]; 63 g ai/ha
  Pre-emerge Herbicidal Activity DIGSA: 50
[15]; 250 g ai/ha
  Pre-emerge Herbicidal Activity DIGSA: 100
[16]; 63 g ai/ha
  Pre-emerge Herbicidal Activity IPOHE: 0
[16]; 250 g ai/ha
  Pre-emerge Herbicidal Activity IPOHE: 40
[17]; 63 g ai/ha
  Pre-emerge Herbicidal Activity SETVI: 90
[17]; 250 g ai/ha
  Pre-emerge Herbicidal Activity SETVI: 100
[18]; 63 g ai/ha
  Pre-emerge Herbicidal Activity ABUTH: 30
[18]; 250 g ai/ha
  Pre-emerge Herbicidal Activity ABUTH: 100
[19]; 63 g ai/ha
  Pre-emerge Herbicidal Activity CHEAL: 90
[19]; 250 g ai/ha
  Pre-emerge Herbicidal Activity CHEAL: 100
[20]; 63 g ai/ha
  Pre-emerge Herbicidal Activity ECHCG: 10
[20]; 250 g ai/ha
  Pre-emerge Herbicidal Activity ECHCG: 30
[21]; 63 g ai/ha
  Pre-emerge Herbicidal Activity RICE: 10
[21]; 250 g ai/ha
  Pre-emerge Herbicidal Activity RICE: 30
[22]; 63 g ai/ha
  Pre-emerge Herbicidal Activity CORN: 0
[22]; 250 g ai/ha
  Pre-emerge Herbicidal Activity CORN: 10

## COc1c(Cl)cc(F)c(-n2c(=O)cc(C(F)(F)F)n(C)c2=O)c1NC(=O)OCc1ccc(Cl)c(Cl)c1 [4-32]
[1]; 63 g ai/ha
  phytotoxicity rating RICE (crop damage): 20
[1]; 250 g ai/ha
  phytotoxicity rating RICE (crop damage): 40
[2]; 63 g ai/ha
  phytotoxicity rating CORN (crop damage): 20
[2]; 250 g ai/ha
  phytotoxicity rating CORN (crop damage): 30
[3]; 63 g ai/ha
  phytotoxicity rating SORHA: 10
[3]; 250 g ai/ha
  phytotoxicity rating SORHA: 30
[4]; [23]
  phytotoxicity rating AMARE: 100
[4]; [24]
  phytotoxicity rating AMARE: 100
[5]; 63 g ai/ha
  phytotoxicity rating CASOB: 80
[5]; 250 g ai/ha
  phytotoxicity rating CASOB: 80
[6]; 63 g ai/ha
  phytotoxicity rating DIGSA: 10
[6]; 250 g ai/ha
  phytotoxicity rating DIGSA: 20
[7]; 63 g ai/ha
  phytotoxicity rating IPOHE: 100
[7]; 250 g ai/ha
  phytotoxicity rating IPOHE: 100
[8]; 63 g ai/ha
  phytotoxicity rating SETVI: 30
[8]; 250 g ai/ha
  phytotoxicity rating SETVI: 50
[9]; 63 g ai/ha
  phytotoxicity rating ABUTH: 90
[9]; 250 g ai/ha
  phytotoxicity rating ABUTH: 100
[10]; 63 g ai/ha
  phytotoxicity rating CHEAL: 100
[10]; 250 g ai/ha
  phytotoxicity rating CHEAL: 100
[11]; 63 g ai/ha
  phytotoxicity rating ECHCG: 0
[11]; 250 g ai/ha
  phytotoxicity rating ECHCG: 20
[12]; 63 g ai/ha
  Pre-emerge Herbicidal Activity AMARE: 50
[12]; 250 g ai/ha
  Pre-emerge Herbicidal Activity AMARE: 100
[13]; 63 g ai/ha
  Pre-emerge Herbicidal Activity SORHA: 0
[13]; 250 g ai/ha
  Pre-emerge Herbicidal Activity SORHA: 30
[14]; 63 g ai/ha
  Pre-emerge Herbicidal Activity CASOB: 0
[14]; 250 g ai/ha
  Pre-emerge Herbicidal Activity CASOB: 30
[15]; 63 g ai/ha
  Pre-emerge Herbicidal Activity DIGSA: 20
[15]; 250 g ai/ha
  Pre-emerge Herbicidal Activity DIGSA: 80
[16]; 63 g ai/ha
  Pre-emerge Herbicidal Activity IPOHE: 0
[16]; 250 g ai/ha
  Pre-emerge Herbicidal Activity IPOHE: 40
[17]; 63 g ai/ha
  Pre-emerge Herbicidal Activity SETVI: 30
[17]; 250 g ai/ha
  Pre-emerge Herbicidal Activity SETVI: 95
[18]; 63 g ai/ha
  Pre-emerge Herbicidal Activity ABUTH: 0
[18]; 250 g ai/ha
  Pre-emerge Herbicidal Activity ABUTH: 70
[19]; 63 g ai/ha
  Pre-emerge Herbicidal Activity CHEAL: 80
[19]; 250 g ai/ha
  Pre-emerge Herbicidal Activity CHEAL: 100
[20]; 63 g ai/ha
  Pre-emerge Herbicidal Activity ECHCG: 0
[20]; 250 g ai/ha
  Pre-emerge Herbicidal Activity ECHCG: 50
[21]; 63 g ai/ha
  Pre-emerge Herbicidal Activity RICE: 0
[21]; 250 g ai/ha
  Pre-emerge Herbicidal Activity RICE: 30
[22]; 63 g ai/ha
  Pre-emerge Herbicidal Activity CORN: 0
[22]; 250 g ai/ha
  Pre-emerge Herbicidal Activity CORN: 10
